Patent US20170183318A1, “AMIDE COMPOUNDS, METHODS FOR PREPARATION, AND USE THEREOF AS AGENTS FOR THE TREATMENT AND PREVENTION OF DISEASES CAUSED BY RNA- AND/OR DNA-CONTAINING VIRUSES, AND CONCOMITANT DISEASES” (OBSCHESTVO S OGRANICHENNOI OTVETSTVENNOSTIYU …, priority 2014, published 2017)
Like-named read-outs stand apart in the source and are kept apart here. Starred links: 1 amine or outer side, 2 acyl side, 3 side chain; linkers in the order of their positions; H or OH if unused. Non-standard residues stand in square brackets, D forms with d. Residues, ends and D or L forms follow the SMILES beside them. ξ: configuration not given here. Glutaryl = O=C(CCCC(=O)[*:2])[*:1]; ξH = NC(Cc1c[nH]cn1)C(=O)O

Tests used:
[1] = test system: human virus hRSV; experiment: Antiviral activity against mouse-adapted RS virus (body weight; viral titer in lungs titrated in Hep-2 cells); format: in vivo, mice; conditions: for hRSV in the lungs of mice, Day 5, lg / hRSV in the lungs of mice, Day 7, lg: 10% lung suspension titrated in Hep-2 cells (TCID); for hRSV in the lungs of mice, Day 5, lg / Body weight of the mice on day 5 after infection with hRSV (M ± SD) / hRSV in the lungs of mice, Day 7, lg / Body weight of the mice on day 7 after infection with hRSV (M ± SD): compounds 30 mg/kg, Ribavirin 40 mg/kg; for Body weight of the mice on day 5 after infection with hRSV (M ± SD) / Body weight of the mice on day 7 after infection with hRSV (M ± SD): orally once daily for 5 days, n = 6; for log reduction at 30 mg/kg: human respiratory syncytial virus, HEp-2, po
Experimental: Antiviral effectiveness of the chemical compounds against RSV in an experimental murine model in vivo was determined for human virus hRSV that was previously adapted to the growth in mouse lungs. The animals were infected with the virus at a dose of 0.5 log TCID50 intranasally under brief ether anesthesia in a volume of 0.05 ml/mouse. The studied compounds were administered orally once daily for 5 days according to the treatment regimen at a dose of 30 mg/kg. The first administration was made 24 hours after infection. Normal saline solution was administered to mice as placebo. Intact animals served as a negative control and were hold in a separate room under the same conditions as the experimental animals. Each experimental group comprised 12 animals.
The antiviral activity of the studied compounds was determined by the efficiency in the prevention of weight loss and by suppression of the reproduction of hRSV in the mouse lungs by measuring a viral titer in the experimental groups relative to the control on days 5 and 7 after infection.
In addition, the therapeutic action of the compounds of general formula I was determined by their ability to suppress the reproduction of hRSV in the mouse lungs on days 5 and 7 after infection. The viral titer was determined by the titration of a 10% lung suspension in Hep-2 cell culture. The result was registered 2 days after the incubation at 37° C. by TCID.

[2] = test system: herpes simplex virus belonging to antigenic type 2; experiment: Murine model of experimental herpetic meningoencephalitis (mortality); format: in vivo, white outbred mice; conditions: Mus musculus, po, 336 h
Experimental: In the study, herpes simplex virus belonging to antigenic type 2 was used. White outbred mice weighing 7-8 g were infected i/c (intracerebrally) in a volume of 0.05 ml/mouse comprising a dose of 10LD50. The infectious dose of the virus that caused 100% mortality in mice was 10LD50. Each experimental group comprised 20 mice. Intact animals served as control and were hold in a separate room under the same conditions as the experimental animals. The antiviral activity of the compounds of general formula I was studied by oral administration of the compounds to infected mice once daily at a dose of 30 mg/kg/mouse 24, 48, 72, 96, and 120 hours after infection of the animals with the virus. The mice of the control group were administered placebo (0.2 mL of physiological solution) under the same conditions. The animals were monitored for 14 days after infection by registration the mouse death in the groups.
Each animal was subjected to once-daily observation. The observation included the assessment of general behavior and body condition of animals. The animals were handled according to the International Standards.
The activity of the compounds was evaluated by comparing mortality rates in the groups of animals administered a preparation and placebo.

[3] = Rat model of nasopharyngitis induced by formalin (nasal mucosa changes, cell elements in nasal lavage); format: in vivo; conditions: Wistar rats, 18 mg/kg for 3 days; for Mucous membrane of nasal passages: Without changes (number of animals): number of animals out of n = 10, control 0 of 20; for Mucous membrane of nasal passages: Discharge mucus from the nasal passages (number of animals): number of animals out of n = 10, control 20 of 20
Experimental: Nasopharyngitis was induced by intranasal administration of formalin to each nasal passage of rats.
The administration of formalin to the nasal passages of rats leads to the dissemination of inflammation to adjacent tissues, resulting in a clinical pattern similar to the symptoms of nasopharyngitis in a human.
After an acclimatization period, the following groups were formed: • intact animals administered intragastrically a physiological solution in an amount of 0.2 ml, without induction of nasopharyngitis; • a control group consisted of animals administered intragastrically a physiological solution in an amount of 0.2 ml for 3 days after induction of nasopharyngitis; and • animals administered the studied compounds at a dose of 18 mg/kg for 3 days after induction of nasopharyngitis.
Clinical observation of each animal was performed every day at least twice daily.
The caused pathology was characterized by hyperplasia, increased number of caliciform cells, pronounced infiltration of mononuclear cells and leucocytes, and mucus hyperproduction by submucosal glands.
After euthanasia, the inflammation pattern in the nasal passages and throat was studied in each group of animals. The nasal passages were washed with 5 mL of physiological solution and the score of cell elements were counted in 1 μL.

[4] = test system: human respiratory syncytial virus (strain A2); experiment: Antiviral activity against RS virus in a murine model of suppressed immune system (lung edema); format: in vivo; conditions: Balb/c mice, cyclophosphan-suppressed, RS-virus pneumonia; 30 mg/kg once daily for 5 days; M ± SD, n = 5; scores from possible 4
Experimental: Antiviral activity of the chemical compounds against human respiratory syncytial virus (strain A2, an infectious titer of 5×10^6 TCID50/mL) was assessed in a Balb/c murine model of viral pneumonia. The virus was inoculated to animals intranasally in a volume of 50 μL under brief ether anesthesia. The immune response in animals to RS virus was suppressed by intraperitoneal administration of cyclophosphan at a dose of 100 mg/kg 5 days before infection. The studied compounds were administered according to the treatment regimen once daily at a dose of 30 mg/kg for 5 days, starting 24 hours after infection. The activity of the compounds was determined by a reduction in edema of the lung infected with respiratory syncytial virus, compared to the control, on day 5 after infection.

[5] = test system: Coxsackie A2 virus (strain HCXV A2); experiment: Antiviral activity against Coxsackie virus in vivo (mortality and life expectancy of infected mice); conditions: for inhibition in vivo at 30 mg/kg / mortality at 30 mg/kg: Mus musculus, po; for inhibition in vivo at 30 mg/kg: 168 h, vs virus control, read-out: Protective index (%); for inhibition in vivo at 30 mg/kg / Average life expectancy (days), Compared with control / Average life expectancy (days), Relative: 30 mg/kg orally once daily for 7 days; for mortality at 30 mg/kg: 360 h, read-out: Total mortality, %; for Average life expectancy (days), Compared with control: difference vs virus control; for Average life expectancy (days), Relative: mice infected with 10LD50 HCXV A2
Experimental: In the study a trypsin-dependent strain HCXV A2 was used, previously adapted and causing death in mice from Coxsackie virus infection.
The experiment was carried out in white mice weighing 6 to 7 g. The animals were infected intramuscularly with a dose of 0.1 mL/mouse. The used infectious dose causing mortality in mice was 10LD50.
The ability of compounds to provide a therapeutic effect was determined by the mortality rate of HCXV A2 virus-infected mice in the experimental group relative to the group of untreated animals.
The studied compounds and placebo were administered orally according to the treatment regimen. Normal saline solution was administered to mice as placebo. Intact animals served as a negative control and were hold in a separate room under the same conditions as the experimental animals.
For the experiment, groups were formed with 14-15 animals each. Compounds were administered at a dose of 30 mg/kg of body weight. The studied compounds were administered orally once daily for 7 days (first administration was made 24 hours after infection). The animals were monitored for 15 days during which the animals were weighed and the mortality rate was registered every day.

[6] = 120 h, read-out: Suppression of the reproduction of hRSV in the lungs of mice, Day 5, Δlg
[7] = 168 h, read-out: Suppression of the reproduction of hRSV in the lungs of mice, Day 7, Δlg

Compound | hRSV in the lungs of mice, Day 5, lg [1] | Body weight of the mice on day 5 after infection with hRSV (M ± SD) [1] | hRSV in the lungs of mice, Day 7, lg [1] | Body weight of the mice on day 7 after infection with hRSV (M ± SD) [1] | log reduction at 30 mg/kg [1, 6] | log reduction at 30 mg/kg [1, 7] | mortality at 30 mg/kg [2] | Mucous membrane of nasal passages: Without changes (number of animals) [3] | Mucous membrane of nasal passages: Discharge mucus from the nasal passages (number of animals) [3] | Degree of lung edema on day 5 after infection, score [4] | inhibition in vivo at 30 mg/kg [5] | mortality at 30 mg/kg [5] | Average life expectancy (days), Compared with control [5] | Average life expectancy (days), Relative [5]
O=C(O)CCCC(=O)NCCc1cocn1 [Compound 124] | 2.46 ± 0.22 lg | 16.43 ± 0.26 | 0.83 ± 0.37 lg | 16.37 ± 0.43 | 2.14 ± 0.22 | 2.97 ± 0.37 | 40% | 7 | 3 |  |  |  |  | 
O=C(O)CCCC(=O)NCCC1CCCNC1 (stereo not drawn) [Compound 5] | 2.17 ± 0.37 lg | 16.02 ± 0.16 | 0.88 ± 0.31 lg | 17.78 ± 0.26 | 2.43 ± 0.37 | 2.93 ± 0.31 | 35% | 5 | 5 | 1.10 ± 0.19 score |  |  |  | 
CC(NC(=O)C(Cc1cnc[nH]1)NC(=O)CCCC(=O)O)C(N)=O (stereo not drawn) [Compound 92] (Glutaryl-His-Ala-NH2; configuration not given here) |  |  |  |  |  |  | 25% | 6 | 4 |  |  |  |  | 
O=C(O)CCCC(=O)NCCC1CCNCC1 [Compound 7] |  | 17.17 ± 0.26 |  | 18.53 ± 0.55 |  |  | 20% | 6 | 4 |  |  |  |  | 
O=C(O)CCCC(=O)NCCc1cnccn1 [Compound 131] |  |  |  |  |  |  | 45% | 5 | 5 |  |  |  |  | 
COC(=O)C(CO)NC(=O)C(Cc1cnc[nH]1)NC(=O)CCCC(=O)O (stereo not drawn) [Compound 149] (Glutaryl-His-Ser-OMe; configuration not given here) | 2.6 ± 0.1 lg | 15.44 ± 0.31 | 2.3 ± 0.4 lg | 17.32 ± 0.59 | 1.9 ± 0.1 | 1.4 ± 0.4 | 25% | 5 | 5 |  | 27.2% | 53.3% | +8.9 days | 19.6 days
NCCCC(=O)NCCCc1cccs1 [Compound 100] |  |  |  |  |  |  | 30% | 3 | 7 |  |  |  |  | 
O=C(O)CCCC(=O)NCCc1cc[nH]c1 [Compound 120] | 3.04 ± 0.47 lg | 16.12 ± 0.27 | 1.50 ± 0.25 lg | 17.22 ± 0.20 | 1.56 ± 0.47 | 2.05 ± 0.25 |  |  |  | 1.05 ± 0.14 score |  |  |  | 
COC(=O)CNC(=O)C(Cc1c[nH]cn1)NC(=O)CCCC(=O)O (stereo not drawn) [Compound 193] (Glutaryl-[ξH]-Gly-OMe) |  |  |  |  |  |  | 25% | 6 | 4 | 0.80 ± 0.17 score | 45.3% | 40.1% | +14.2 days | 24.9 days
O=C(O)CCCC(=O)NCCC1=NCCN1 [Compound 3] | 3.04 ± 0.42 lg | 16.65 ± 0.28 | 1.46 ± 0.17 lg | 17.32 ± 0.25 | 1.56 ± 0.42 | 2.18 ± 0.28 |  |  |  | 1.6 ± 0.89 score |  |  |  | 
O=C(O)CCCC(=O)NCCc1cn[nH]n1 [Compound 126] |  |  |  |  |  |  | 40% | 4 | 6 |  |  |  |  | 
CC(C)(CCC(=O)NCCc1cnc[nH]1)C(=O)O [Compound 44] |  |  |  |  |  |  | 40% | 4 | 6 |  | 55% | 28.6% | +20.1 days | 32.3 days
O=C(O)CCCC(=O)NCCc1cc[nH]n1 [Compound 15] |  |  |  |  |  |  | 30% | 7 | 3 |  |  |  |  | 
